Non-standard residues stand in square brackets, D forms with d. *: point of attachment. Biotin = O=C1N[C@H]2[C@H](CS[C@H]2CCCCC(=O)*)N1; Hyp = O=C(O)[C@@H]1C[C@@H](O)CN1
Tested on: pVHL
Assay: In vitro pVHL-HIF-2α binding assay (streptavidin pull-down with IVTT HA-VHL30)
Settings: synthetically hydroxylated biotinylated peptides on streptavidin-agarose, IVTT HA-VHL30, 2 h at 4 °C, stringent and mild buffer
Experimental: Fig. 4 Affinity of HIF-2α mutants for pVHL is correlated with disease phenotype. a Biotinylated HIF-2α peptides (523–541) were immobilized on a streptavidin-coated 96-well plate. Binding to various concentrations of pVHL-elongin B-elongin C (VBC) complex was assayed via ELISA with an anti-eloB antibody. Absorbance was read at 450 nm. Values represent mean of three independent experiments performed in duplicate ± SEM. *p < 0.05; **p < 0.01. b Biotinylated HIF-2αOH peptides (523–541) were immobilized on streptavidin- agarose beads and incubated with in vitro transcribed and translated (IVTT) pVHL. Streptavidin beads were pulled down (PD) and levels of HA-tagged pVHL were visualized via immmunoblotting (IB). c, d Biolayer interferometry kinetic analysis of VBC complex binding to biotinylated HIF-2α peptides (523–541). c Biotinylated peptides were coupled to streptavidin- coated biosensors and monitored for binding to VBC complex at the indicated concentrations. The data were analyzed based on a 1:1 binding model using the BLItz Pro software with the fitted curves shown as gray lines. […]
The in vitro pVHL-HIF-2α binding assay was performed according to a previously published protocol. […] Protein levels of HA-VHL30 were determined by western blotting. […]

## HIF-2αOH L542 peptide: synthetically P531-hydroxylated HIF-2α peptide (523–542), presumably carrying L542P (Biotin-ELDLETLA[Hyp]YIPMDGEDFQP-NH2; SMILES CC[C@H](C)[C@H](NC(=O)[C@H](Cc1ccc(O)cc1)NC(=O)[C@@H]1C[C@@H](O)CN1C(=O)[C@H](C)NC(=O)[C@H](CC(C)C)NC(=O)[C@@H](NC(=O)[C@H](CCC(=O)O)NC(=O)[C@H](CC(C)C)NC(=O)[C@H](CC(=O)O)NC(=O)[C@H](CC(C)C)NC(=O)[C@H](CCC(=O)O)NC(=O)CCCC[C@@H]1SC[C@@H]2NC(=O)N[C@@H]21)[C@@H](C)O)C(=O)N1CCC[C@H]1C(=O)N[C@@H](CCSC)C(=O)N[C@@H](CC(=O)O)C(=O)NCC(=O)N[C@@H](CCC(=O)O)C(=O)N[C@@H](CC(=O)O)C(=O)N[C@@H](Cc1ccccc1)C(=O)N[C@@H](CCC(N)=O)C(=O)N1CCC[C@H]1C(N)=O)
  binding of IVTT pVHL in pull-down (immunoblot, in words): rescued binding to pVHL
